What was measured:
[1] = test system: Transformed human keratinocyte (HaCaT) cells stimulated with TNFα and IFNγ; assay: JAK inhibitors in TNFα/IFNγ stimulated keratinocytes, inflammatory mediators in media (ProCarta Multiplex Immunoassay); settings: mean ± 1 standard error
[2] = molecular target: human JAK1 (a.a. 837-1142) (Homo sapiens, UniProt P23458); assay: In vitro JAK kinase assay (HTRF), JAK1; assay type: biochemical; settings: 1 mM ATP
[3] = test system: human JAK1 (a.a. 837-1142); assay: In vitro JAK kinase assay (HTRF), JAK1; assay type: biochemical; settings: IC50 ratio at 1 mM ATP
[4] = test system: Transformed human keratinocyte (HaCaT) cells stimulated with TNFα and IFNγ; assay: JAK inhibitors in TNFα/IFNγ stimulated keratinocytes, gene expression (QuantiGene Plex); settings: 24 hours, normalized to HPRT1, mean ± standard error
[5] = TNFα (25 ng/mL) and IFNγ (25 ng/mL) stimulation, drug 25 nM
[6] = TNFα (25 ng/mL) and IFNγ (25 ng/mL) stimulation, drug 50 nM
[7] = TNFα (25 ng/mL) and IFNγ (25 ng/mL) stimulation, drug 100 nM
[8] = TNFα (25 ng/mL) and IFNγ (25 ng/mL) stimulation, drug 200 nM
[9] = TNFα (25 ng/mL) and IFNγ (25 ng/mL), drug 25 nM
[10] = TNFα (25 ng/mL) and IFNγ (25 ng/mL), drug 50 nM
[11] = TNFα (25 ng/mL) and IFNγ (25 ng/mL), drug 100 nM
[12] = TNFα (25 ng/mL) and IFNγ (25 ng/mL), drug 200 nM

C[C@@H](O)c1nc2cnc3ccsc3c2n1[C@H]1CC[C@H](CC#N)OC1 [Compound 5, ((2R,5S)-5-{2-[(1R)-1-hydroxyethyl]-1H-imidazo[4,5-d]thieno[3,2-b]pyridin-1-yl}tetrahydro-2H-pyran-2-yl)acetonitrile]
IL-1α concentration in media [1, 5]: 6.8 ± 0.39 pg/mL
IL-6 concentration in media [1, 5]: 743.07 ± 36.3 pg/mL
IP-10/CXCL10 concentration in media [1, 5]: 3903.67 ± 366.97 pg/mL
MIP1α concentration in media [1, 5]: 102.06 ± 4.18 pg/mL
RANTES concentration in media [1, 5]: 237.57 ± 17.46 pg/mL
IL-1α concentration in media [1, 6]: 6.76 ± 0.4 pg/mL
IL-6 concentration in media [1, 6]: 698.04 ± 29.79 pg/mL
IP-10/CXCL10 concentration in media [1, 6]: 3998.62 ± 456.34 pg/mL
MIP1α concentration in media [1, 6]: 96.35 ± 3.57 pg/mL
RANTES concentration in media [1, 6]: 237.55 ± 21.78 pg/mL
IL-1α concentration in media [1, 7]: 6.92 ± 0.4 pg/mL
IL-6 concentration in media [1, 7]: 703.99 ± 42.22 pg/mL
IP-10/CXCL10 concentration in media [1, 7]: 4100.26 ± 502.48 pg/mL
MIP1α concentration in media [1, 7]: 96.22 ± 3.58 pg/mL
RANTES concentration in media [1, 7]: 241.39 ± 22.79 pg/mL
IL-1α concentration in media [1, 8]: 6.3 ± 0.35 pg/mL
IL-6 concentration in media [1, 8]: 646.2 ± 32.46 pg/mL
IP-10/CXCL10 concentration in media [1, 8]: 4407.56 ± 645.63 pg/mL
MIP1α concentration in media [1, 8]: 88.49 ± 5.06 pg/mL
RANTES concentration in media [1, 8]: 238.51 ± 23.12 pg/mL
IL-1α concentration in media ([1]; no stimulation, drug 200 nM): 0.31 ± 0.04 pg/mL
IL-6 concentration in media ([1]; no stimulation, drug 200 nM): 28.84 ± 1.89 pg/mL
IP-10/CXCL10 concentration in media ([1]; no stimulation, drug 200 nM): 20.39 ± 0.57 pg/mL
MIP1α concentration in media ([1]; no stimulation, drug 200 nM): 3.11 ± 0.28 pg/mL
RANTES concentration in media ([1]; no stimulation, drug 200 nM): 9.51 ± 0.56 pg/mL
IC50 [2]: < 100 nM
JAK2/JAK1 [3]: >10
IL-1α MFI [4, 9]: 1269.66 ± 50.59
IL-6 MFI [4, 9]: 132.28 ± 7.41
JAK1 MFI [4, 9]: 200.4 ± 9.84
JAK2 MFI [4, 9]: 108.89 ± 3.25
JAK3 MFI [4, 9]: 0.97 ± 0.18
STAT1 MFI [4, 9]: 3164.74 ± 242.35
STAT3 MFI [4, 9]: 1572.76 ± 65.5
STAT4 MFI [4, 9]: 5.4 ± 0.45
STAT5A MFI [4, 9]: 20.12 ± 1.29
STAT6 MFI [4, 9]: 1042.76 ± 29.23
TYK2 MFI [4, 9]: 283.93 ± 8.16
IL-1α MFI [4, 10]: 1336.95 ± 50.97
IL-6 MFI [4, 10]: 137.61 ± 5.87
JAK1 MFI [4, 10]: 210.52 ± 7.73
JAK2 MFI [4, 10]: 106.83 ± 5.94
JAK3 MFI [4, 10]: 0.99 ± 0.20
STAT1 MFI [4, 10]: 3017.08 ± 167.96
STAT3 MFI [4, 10]: 1543.4 ± 58.65
STAT4 MFI [4, 10]: 6.1 ± 0.36
STAT5A MFI [4, 10]: 22.69 ± 1.71
STAT6 MFI [4, 10]: 1046.46 ± 29.12
TYK2 MFI [4, 10]: 307.36 ± 14.87
IL-1α MFI [4, 11]: 1244.96 ± 41.03
IL-6 MFI [4, 11]: 122.46 ± 5.35
JAK1 MFI [4, 11]: 200.25 ± 8.15
JAK2 MFI [4, 11]: 102.64 ± 3.52
JAK3 MFI [4, 11]: 1.01 ± 0.17
STAT1 MFI [4, 11]: 2999.87 ± 197.86
STAT3 MFI [4, 11]: 1549.17 ± 89.41
STAT4 MFI [4, 11]: 5.83 ± 0.34
STAT5A MFI [4, 11]: 19.54 ± 1.34
STAT6 MFI [4, 11]: 985.1 ± 39.79
TYK2 MFI [4, 11]: 280.63 ± 10.46
IL-1α MFI [4, 12]: 1163.14 ± 26.71
IL-6 MFI [4, 12]: 119.49 ± 4.42
JAK1 MFI [4, 12]: 190.53 ± 7.68
JAK2 MFI [4, 12]: 92.21 ± 2.9
JAK3 MFI [4, 12]: 0.86 ± 0.16
STAT1 MFI [4, 12]: 3161.66 ± 135.8
STAT3 MFI [4, 12]: 1570.19 ± 51.51
STAT4 MFI [4, 12]: 5.42 ± 0.52
STAT5A MFI [4, 12]: 18.33 ± 1.83
STAT6 MFI [4, 12]: 1013.25 ± 17.15
TYK2 MFI [4, 12]: 283.28 ± 10.88
IL-1α MFI ([4]; no stimulation, drug 200 nM): 92.67 ± 5.54
IL-6 MFI ([4]; no stimulation, drug 200 nM): 5.15 ± 0.31
JAK1 MFI ([4]; no stimulation, drug 200 nM): 177.97 ± 14.91
JAK2 MFI ([4]; no stimulation, drug 200 nM): 25.67 ± 1.03
JAK3 MFI ([4]; no stimulation, drug 200 nM): 0.71 ± 0.15
STAT1 MFI ([4]; no stimulation, drug 200 nM): 554.64 ± 11.36
STAT3 MFI ([4]; no stimulation, drug 200 nM): 750.90 ± 27.68
STAT4 MFI ([4]; no stimulation, drug 200 nM): 4.32 ± 0.53
STAT5A MFI ([4]; no stimulation, drug 200 nM): 1.99 ± 0.51
STAT6 MFI ([4]; no stimulation, drug 200 nM): 777.03 ± 29.31
TYK2 MFI ([4]; no stimulation, drug 200 nM): 220.78 ± 12.01

N#CCC(C1CCN(c2cccc(Cl)n2)C1)n1cc(-c2ncnc3[nH]ccc23)cn1 (single isomer, unassigned) [Compound 6, 3-[1-(6-chloropyridin-2-yl)pyrrolidin-3-yl]-3-[4-(7H-pyrrolo[2,3-d]pyrimidin-4-yl)-1H-pyrazol-1-yl]propanenitrile]
IC50 [2]: < 10 nM
JAK2/JAK1 [3]: >10

C[C@@H](O)CNCc1cc(OC2CCN([C@H]3C[C@](CC#N)(n4cc(-c5ncnc6[nH]ccc56)cn4)C3)CC2)nc(C(F)(F)F)c1 [Compound 24, {trans-3-(4-{[4-({[(2R)-2-hydroxypropyl]amino}methyl)-6-(trifluoromethyl)pyridin-2-yl]oxy}piperidin-1-yl)-1-[4-(7H-pyrrolo[2,3-d]pyrimidin-4-yl)-1H-pyrazol-1-yl]cyclobutyl}acetonitrile]
IC50 [2]: < 10 nM
JAK2/JAK1 [3]: >10

N#CCC1(n2cc(-c3ncnc4[nH]ccc34)cn2)CN([C@H]2CC[C@@H](Oc3cc(CCO)nc(C(F)(F)F)n3)CC2)C1 [Compound 18, {1-(cis-4-{[6-(2-hydroxyethyl)-2-(trifluoromethyl)pyrimidin-4-yl]oxy}cyclohexyl)-3-[4-(7H-pyrrolo[2,3-d]pyrimidin-4-yl)-1H-pyrazol-1-yl]azetidin-3-yl}acetonitrile]
IC50 [2]: < 10 nM
JAK2/JAK1 [3]: >10

N#CC[C@]1(n2cc(-c3ncnc4[nH]ccc34)cn2)C[C@H](N2CCC(Oc3cc(CN4CCC[C@H]4CO)cc(C(F)(F)F)n3)CC2)C1 [Compound 12, {trans-3-(4-{[4-{[(2S)-2-(hydroxymethyl)pyrrolidin-1-yl]methyl}-6-(trifluoromethyl)pyridin-2-yl]oxy}piperidin-1-yl)-1-[4-(7H-pyrrolo[2,3-d]pyrimidin-4-yl)-1H-pyrazol-1-yl]cyclobutyl}acetonitrile]
IC50 [2]: < 10 nM
JAK2/JAK1 [3]: >10

N#CC[C@]1(n2cc(-c3ncnc4[nH]ccc34)cn2)C[C@H](N2CCC(Oc3cc(CCO)cc(C(F)(F)F)n3)CC2)C1 [Compound 26, {trans-3-(4-{[4-(2-hydroxyethyl)-6-(trifluoromethyl)pyridin-2-yl]oxy}piperidin-1-yl)-1-[4-(7H-pyrrolo[2,3-d]pyrimidin-4-yl)-1H-pyrazol-1-yl]cyclobutyl}acetonitrile]
IC50 [2]: < 10 nM
JAK2/JAK1 [3]: >10

N#CC[C@]1(n2cc(-c3ncnc4[nH]ccc34)cn2)C[C@H](N2CCC(Oc3cc(CN4CCC[C@@H]4CO)cc(C(F)(F)F)n3)CC2)C1 [Compound 13, {trans-3-(4-{[4-{[(2R)-2-(hydroxymethyl)pyrrolidin-1-yl]methyl}-6-(trifluoromethyl)pyridin-2-yl]oxy}piperidin-1-yl)-1-[4-(7H-pyrrolo[2,3-d]pyrimidin-4-yl)-1H-pyrazol-1-yl]cyclobutyl}acetonitrile]
IC50 [2]: < 10 nM
JAK2/JAK1 [3]: >10

N#CCC(CN1CCN(C(=O)c2ccc(C#N)cc2F)CC1)n1cc(-c2ncnc3[nH]ccc23)cn1 (centres unmarked) [Compound 8, 4-[(4-{3-cyano-2-[4-(7H-pyrrolo[2,3-d]pyrimidin-4-yl)-1H-pyrazol-1-yl]propyl}piperazin-1-yl)carbonyl]-3-fluorobenzonitrile]
IC50 [2]: < 10 nM
JAK2/JAK1 [3]: >10

N#CCC1(n2cc(-c3ncnc4[nH]ccc34)cn2)CN(C2CCN(C(=O)c3ccnc(C(F)(F)F)n3)CC2)C1 [Compound 3, [3-[4-(7H-pyrrolo[2,3-d]pyrimidin-4-yl)-1H-pyrazol-1-yl]-1-(1-{[2-(trifluoromethyl)pyrimidin-4-yl]carbonyl}piperidin-4-yl)azetidin-3-yl]acetonitrile]
IC50 [2]: < 10 nM
JAK2/JAK1 [3]: >10
